Where two headings read alike, the source gives them in different places.
Tests used:
[1] = target: T1, A2AR (Homo sapiens, UniProt P29274); parameters: method as in Lagarias et al.[19]; details: 10 nM [3H]NECA; ref Lagarias et al.[19]; read-out: Radioligand binding Ki A2AR; cited from earlier work
T1 construct: expressed in transfected cells; host or cells: CHO cells, membrane preparation

[2] = target: T2, A1R (Homo sapiens, UniProt P30542); parameters: method as in Lagarias et al.[19]; details: 1 nM [3H]CCPA; ref Lagarias et al.[19]; read-out: Radioligand binding Ki A1R; cited from earlier work
T2 construct: expressed in transfected cells
T2 sequence (P30542 1-326): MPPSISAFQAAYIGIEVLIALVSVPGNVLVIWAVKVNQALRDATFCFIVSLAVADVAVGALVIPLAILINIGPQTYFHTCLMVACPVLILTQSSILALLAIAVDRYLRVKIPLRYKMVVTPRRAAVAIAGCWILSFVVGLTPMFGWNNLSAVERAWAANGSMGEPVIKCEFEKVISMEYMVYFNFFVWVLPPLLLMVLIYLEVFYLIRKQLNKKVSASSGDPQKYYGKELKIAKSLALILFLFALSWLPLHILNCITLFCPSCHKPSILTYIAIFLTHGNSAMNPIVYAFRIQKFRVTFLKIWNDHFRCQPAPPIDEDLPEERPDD

[3] = physchem; details: PBS, pH 7.4
[4] = in vitro; details: human, plasma
[5] = Human plasma stability; details: 1 μM compound
[6] = Half-life in PBS (pH 7.4); details: PBS pH 7.4, 1 μM compound
[7] = target: T1, A2AR; assay: Radioligand binding at A2AR ([3H]NECA, CHO cell membranes); details: 10 nM [3H]NECA; three independent experiments
Experimental: (§1) All pharmacological methods followed the procedures as described in the literature. In brief, membranes for radioligand binding were prepared from CHO cells stably transfected with hAR subtypes in a two-step procedure. In the first step, cell fragments and nuclei were removed at 1000×g and then the crude membrane fraction was sedimented from the supernatant at 100,000×g. The membrane pellet was resuspended in the buffer used for the respective binding experiments and it was frozen in liquid nitrogen and stored at – 80 °C. […] Ki values from competition experiments were calculated using Prism (GraphPad Software, La Jolla, CA, USA) assuming competitive interaction with a single binding site.

[8] = target: T3, rat A3R (Rattus norvegicus, UniProt P28647); assay: NanoBRET ligand-binding, Nluc-rat A3R HEK 293 cells, AV039 tracer
T3 sequence (P28647 1-320): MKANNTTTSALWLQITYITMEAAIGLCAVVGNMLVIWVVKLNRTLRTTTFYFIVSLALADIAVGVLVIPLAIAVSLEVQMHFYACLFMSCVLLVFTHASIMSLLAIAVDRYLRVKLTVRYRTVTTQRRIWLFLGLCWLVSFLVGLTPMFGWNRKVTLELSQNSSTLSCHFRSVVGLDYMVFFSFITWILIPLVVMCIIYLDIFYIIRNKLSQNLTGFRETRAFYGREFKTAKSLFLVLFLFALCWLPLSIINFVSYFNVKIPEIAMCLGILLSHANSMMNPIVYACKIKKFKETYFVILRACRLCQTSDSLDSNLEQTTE

[9] = target: T2, A1R; assay: Radioligand binding at A1R ([3H]CCPA, CHO cell membranes); details: 1 nM [3H]CCPA; three independent experiments
Experimental: as §1

[10] = target: T4, A3R (Homo sapiens, UniProt P0DMS8); details: for cAMP accumulation Mean difference between 'NECA' and compound: 10 μM forskolin + NECA IC80 + 1 μM compound
T4 sequence (P0DMS8 1-318): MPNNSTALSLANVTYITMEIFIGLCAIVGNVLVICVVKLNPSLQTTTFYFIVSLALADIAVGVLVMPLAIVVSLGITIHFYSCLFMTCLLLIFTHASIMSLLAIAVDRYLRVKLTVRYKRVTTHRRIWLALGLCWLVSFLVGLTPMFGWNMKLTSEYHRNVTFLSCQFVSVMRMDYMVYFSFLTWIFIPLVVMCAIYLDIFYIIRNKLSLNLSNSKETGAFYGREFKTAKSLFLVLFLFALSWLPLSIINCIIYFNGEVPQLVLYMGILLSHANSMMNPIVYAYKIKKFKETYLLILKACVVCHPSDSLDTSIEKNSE

[11] = target: T4, A3R; assay: Radioligand binding at A3R ([3H]HEMADO, CHO cell membranes); details: 1 nM [3H]HEMADO; three independent experiments
[12] = target: T2, A1R; assay: NECA stimulated cAMP inhibition in CHO-K1 cells expressing A1R; format: cell-based; details: NECA only
[13] = target: T4, A3R; assay: NECA stimulated cAMP inhibition in A3R Flp-In CHO cells; format: cell-based; details: NECA only; lower plateau
[14] = 10 μM forskolin + NECA IC80 (3.16 nM) + 1 μM compound, mean ± SEM, n = 3

T1 sequence (P29274 whole entry): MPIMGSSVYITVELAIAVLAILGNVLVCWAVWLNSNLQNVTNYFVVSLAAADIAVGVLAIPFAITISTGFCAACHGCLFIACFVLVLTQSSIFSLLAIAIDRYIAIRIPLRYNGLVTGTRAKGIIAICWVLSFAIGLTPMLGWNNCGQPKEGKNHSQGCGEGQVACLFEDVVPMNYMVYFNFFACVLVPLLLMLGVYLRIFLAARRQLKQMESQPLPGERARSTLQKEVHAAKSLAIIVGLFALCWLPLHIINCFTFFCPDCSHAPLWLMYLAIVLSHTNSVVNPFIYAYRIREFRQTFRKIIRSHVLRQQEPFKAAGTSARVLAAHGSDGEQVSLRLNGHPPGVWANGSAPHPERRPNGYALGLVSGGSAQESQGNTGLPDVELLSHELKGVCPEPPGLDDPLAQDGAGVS

**Q.** Which results are given for `Cc1nc(C(=N)NOC(=O)c2c(-c3c(Cl)cccc3Cl)noc2C)cs1` [Compound K18, O4-{[3-(2,6-dichlorophenyl)-5-methylisoxazol-4-yl]carbonyl}-2-methyl-1,3-thiazole-4-carbohydroximamide]?
**A.** Ki [1]: > 100 µM; Ki [2]: > 100 µM; half-life at 1 μM [3]: > 4 h; half-life at 1 μM [4]: > 2 h; percentage remaining after 120 min [5]: 90%; percentage remaining at 240 min [6]: 87%

**Q.** Which Ki [7] does the source give for `Cc1onc(-c2ccccc2Cl)c1C(=O)O/N=C(\N)c1ccccn1` [Compound K32] here?
**A.** > 100 µM

**Q.** What about the “binding at rat A3R” value ([8]; no binding detected below the concentration of 10 μM) of the same compound?
**A.** very weak binding

**Q.** What about the pKi ([8]; rat A3R, 100 nM AV039, BRET ratio at 5 minutes, Cheng-Prusoff) of the same compound?
**A.** 4.05 ± 0.10

**Q.** And the Ki [9]?
**A.** > 100 µM

**Q.** With `N/C(=N\OC(=O)c1ccccc1-c1ccccc1)c1cccnc1` [Compound K33] as the compound, how does the “cAMP accumulation Mean” value [10, 14] read?
**A.** 71.97 ±4.74 %10 μM forskolin response

**Q.** What about the “cAMP accumulation Mean difference between 'NECA' and compound” value [10] of the same compound?
**A.** -11.65 %10 μM forskolin response

**Q.** And the Ki [7]?
**A.** > 100 µM

**Q.** What about the Ki [11] of the same compound?
**A.** > 30 µM

**Q.** And the Ki [9]?
**A.** > 100 µM

**Q.** For `N/C(=N\OC(=O)c1ccc(-c2ccccc2)cc1)c1ccc(Br)cc1` [Compound K36], which “cAMP accumulation Mean” value [10, 14] is on record?
**A.** 61.96 ±1.51 %10 μM forskolin response

**Q.** And the “cAMP accumulation Mean difference between 'NECA' and compound” value [10]?
**A.** -1.64 %10 μM forskolin response

**Q.** What about the Ki [7] of the same compound?
**A.** > 100 µM

**Q.** What about the Ki [11] of the same compound?
**A.** > 100 µM

**Q.** What about the Ki [9] of the same compound?
**A.** > 100 µM

**Q.** With `CCNC(=O)[C@H]1O[C@@H](n2cnc3c(N)ncnc32)[C@H](O)[C@@H]1O` [NECA] as the compound, how does the “cAMP accumulation Mean” value ([10]; 10 μM forskolin + NECA IC80 (3.16 nM), no test compound) read?
**A.** 60.32 ± 3.41 %10 μM forskolin response

**Q.** What about the Span [12] of the same compound?
**A.** 111.4 ±4.0

**Q.** And the Emin ([12]; lower plateau)?
**A.** -5.1 ±1.0 % forskolin response

**Q.** What about the Basal ([12]; upper plateau) of the same compound?
**A.** 107.5 ±3.4

**Q.** And the Emin [13]?
**A.** -5.02 ±2.4 % 10 µM forskolin response, relative to NECA

**Q.** Which results are given for `CC(C)[N+](C)(CCOC(=O)C1c2ccccc2Oc2ccccc21)C(C)C` [propantheline, reference compound]?
**A.** half-life at 1 μM [3]: > 4 h; half-life at 1 μM [4]: 0.917 h
